Assay results reported in publication PMC11674141, “Antimicrobial activity and synergistic effect of phage-encoded antimicrobial peptides with colistin and outer membrane permeabilizing agents against Acinetobacter baumannii” (PeerJ, 2024).
≈ marks a conversion by molar mass, not a printed value. Read-outs that look alike come from different tables or passages of the source. One block for each compound: values may come before it. Where a SMILES comes first, the peptide text is derived from it. Bridges are numbered along the chain shown (N, C = ends). Where no end group is shown, it is not given here. [ ]: non-standard residue; d: D form. The star is where a group is joined. X1 = CC[C@H](C)CCCCC(=O)*; Dab = NCC[C@H](N)C(=O)O

What was measured:
A. baumannii ATCC19606 [1] = conditions: for MIC values of outer membrane permeabilizers and colistin: A. baumannii 19606
A. baumannii ATCC19606 [2] = experiment: microbe, parasite or virus in culture; conditions: Acinetobacter baumannii, ATCC19606, read-out: MIC alone
A. baumannii ATCC19606 [3] = conditions: ATCC19606, checkerboard, agent alone
[4] = microdilution, triplicate samples
[5] = A. baumannii 19,606, microdilution, MHB, 37 °C overnight, triplicate samples

MIC values of outer membrane permeabilizers and colistin (A. baumannii ATCC19606 [1]; [4]): 2500 µg/mL
Compound: O=C(O)CC(O)C(=O)O (racemic) [DL-Malic acid, reference compound]

MIC values of outer membrane permeabilizers and colistin (A. baumannii ATCC19606 [1]; [4]): 5000 µg/mL
MIC (A. baumannii ATCC19606 [2]): 5000 µg/mL (≈ 26 mM)
Compound: O=C(O)CC(O)(CC(=O)O)C(=O)O [Citric acid, reference compound]

Compound: CC[C@H](C)CCCCC(=O)N[C@@H](CCN)C(=O)N[C@H](C(=O)N[C@@H](CCN)C(=O)N[C@H]1CCNC(=O)[C@H]([C@@H](C)O)NC(=O)[C@H](CCN)NC(=O)[C@H](CCN)NC(=O)[C@H](CC(C)C)NC(=O)[C@@H](CC(C)C)NC(=O)[C@H](CCN)NC1=O)[C@@H](C)O [Colistin] (X1-[Dab]T[Dab][Dab][Dab][dL]L[Dab][Dab]T; lactam 4-C (inferred); N-terminus assumed)
MIC values of outer membrane permeabilizers and colistin (A. baumannii ATCC19606 [1]; [4]): 2 µg/mL
Colistin Resistance MIC (MDR-AB, XDR-AB; strain AB57, XDR-AB / CR-AB): 1 µg/mL
Colistin Resistance MIC (MDR-AB, XDR-AB; strain AB59, XDR-AB / CR-AB): 0.5 µg/mL
Colistin Resistance MIC (MDR-AB, XDR-AB; strain AB329, XDR-AB / CR-AB): 1 µg/mL
Colistin Resistance MIC (MDR-AB, XDR-AB; strain CR65-40, MDR-AB / CR-AB): 8 µg/mL
Colistin Resistance MIC (MDR-AB, XDR-AB; strain CR65-43, XDR-AB / CR-AB): 4 µg/mL
Colistin Resistance MIC (MDR-AB, XDR-AB; strain CR65-47, MDR-AB / CR-AB): 2 µg/mL
Colistin Resistance MIC (MDR-AB, XDR-AB; strain CR65-51, XDR-AB / CR-AB): 2 µg/mL
Colistin Resistance MIC (MDR-AB, XDR-AB; strain CR65-55, MDR-AB / CR-AB): 2 µg/mL
Colistin Resistance MIC (MDR-AB, XDR-AB; strain CR65-71, MDR-AB / CR-AB): 4 µg/mL
Colistin Resistance MIC (MDR-AB, XDR-AB; strain CR65-74, XDR-AB / CR-AB): 2 µg/mL
MIC alone (A. baumannii ATCC19606 [3]): 2 µg/mL

Compound: CC[C@H](C)[C@H](NC(=O)[C@H](CCCNC(=N)N)NC(=O)[C@H](CC(N)=O)NC(=O)[C@@H](N)CCCCN)C(=O)N[C@H](C(=O)NCC(=O)N1CCC[C@H]1C(=O)N[C@H](C(=O)N[C@@H](Cc1ccc(O)cc1)C(=O)N[C@@H](C)C(=O)N[C@@H](CCCCN)C(=O)N[C@@H](CS)C(=O)N[C@@H](CC(N)=O)C(=O)N[C@@H](CCCNC(=N)N)C(=O)N[C@@H](CO)C(=O)N[C@@H](CCCNC(=N)N)C(=O)N[C@@H](CCC(N)=O)C(=O)N[C@@H](CCSC)C(=O)N[C@@H](C)C(=O)N[C@@H](CC(C)C)C(=O)N[C@@H](CCC(=O)O)C(=O)N[C@@H](CC(N)=O)C(=O)N[C@@H](CCSC)C(=O)N[C@@H](C)C(=O)N[C@@H](Cc1ccccc1)C(=O)O)C(C)C)[C@@H](C)CC [PTL02]
MIC values (A. baumannii ATCC19606 [1]; [5]): 5,000 ug/ml
MIC (ATCC19606) (A. baumannii ATCC19606 [1]; A. baumannii ATCC19606): 5000 µg/mL (≈ 1.72 mM)

Compound: ENMRNRKWNSTDTVMRRSRFQRYLR [PTTPAT04]
MIC values (A. baumannii ATCC19606 [1]; [5]): 2,500 ug/ml
MIC (ATCC19606) (A. baumannii ATCC19606 [1]; A. baumannii ATCC19606): 2500 µg/mL

MIC (ATCC19606) (A. baumannii ATCC19606 [1]; ATCC19606): > 5000 µg/mL
MIC values (A. baumannii ATCC19606 [1]; ATCC19606): >5,000 ug/ml
Compound: EYRSSWTGAYGASVLNKYIGMGRNS [PSTF02]
